Experimental data: paper PMC7838034 (Acta Pharmaceutica Sinica. B, 2020)

Tests used:
[1] = molecular target: recombinant BRD4(BD1 + BD2) (Homo sapiens, UniProt O60885); assay: BRD4 inhibition assay; assay type: binding
MDA-MB-468 cells [2] = assay: Annexin V-FITC/PI apoptosis assay; assay type: cell-based, human; conditions: 1, 3.3 and 10 μmol/L
[3] = Pharmacokinetic study, oral; assay type: in vivo, Sprague–Dawley rats
MCF-7 cells = assay: Annexin V-FITC/PI apoptosis assay; assay type: cell-based, human
[4] = tested on: MDA-MB-468 tumor xenograft; assay: MDA-MB-468 breast cancer xenograft model
[5] = tested on: BRD4 and PARP1 in MDA-MB-468 tumor tissues; assay: IHC staining of tumor tissue; assay type: in vivo, nude mice (BALB/c); conditions: 40 mg/kg, compared with control group
MDA-MB-468 cells [6] = assay: Colony formation assay; assay type: cell-based, human; conditions: compared with DMSO-treated control
MCF-7 tumor xenograft = assay: MCF-7 breast cancer xenograft model
PARP1 = PARP1 (Homo sapiens, UniProt P09874); assay: PARP1 inhibition assay; assay type: biochemical; conditions: tested in duplicate, average
PARP1, sequence (P09874 whole entry): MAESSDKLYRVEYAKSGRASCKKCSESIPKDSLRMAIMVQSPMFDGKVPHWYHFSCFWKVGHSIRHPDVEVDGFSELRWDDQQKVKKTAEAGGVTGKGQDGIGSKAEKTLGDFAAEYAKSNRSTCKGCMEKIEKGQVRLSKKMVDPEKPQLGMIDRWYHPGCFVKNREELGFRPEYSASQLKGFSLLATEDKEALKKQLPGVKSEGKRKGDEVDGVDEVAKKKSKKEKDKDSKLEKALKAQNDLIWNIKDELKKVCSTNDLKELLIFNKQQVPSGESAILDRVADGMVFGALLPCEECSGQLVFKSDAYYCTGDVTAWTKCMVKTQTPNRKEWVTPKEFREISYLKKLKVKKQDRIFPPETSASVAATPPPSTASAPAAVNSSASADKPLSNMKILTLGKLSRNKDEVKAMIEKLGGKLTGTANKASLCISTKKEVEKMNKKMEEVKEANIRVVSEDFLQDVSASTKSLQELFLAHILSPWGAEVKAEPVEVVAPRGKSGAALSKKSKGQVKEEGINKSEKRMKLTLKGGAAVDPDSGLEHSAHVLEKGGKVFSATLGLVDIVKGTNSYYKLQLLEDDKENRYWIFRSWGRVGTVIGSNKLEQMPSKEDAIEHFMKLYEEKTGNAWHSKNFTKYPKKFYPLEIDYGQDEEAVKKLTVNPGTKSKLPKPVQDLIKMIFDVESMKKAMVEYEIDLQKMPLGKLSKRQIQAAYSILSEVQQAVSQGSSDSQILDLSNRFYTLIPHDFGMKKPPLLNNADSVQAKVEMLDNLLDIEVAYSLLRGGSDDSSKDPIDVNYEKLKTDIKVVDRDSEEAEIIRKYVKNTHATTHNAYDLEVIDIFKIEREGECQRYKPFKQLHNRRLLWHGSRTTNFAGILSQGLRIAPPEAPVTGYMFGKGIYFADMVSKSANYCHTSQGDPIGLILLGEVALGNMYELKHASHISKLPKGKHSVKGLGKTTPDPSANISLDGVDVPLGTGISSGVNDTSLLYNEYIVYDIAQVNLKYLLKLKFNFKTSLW

[7] = tested on: BRD4 and PARP1 in MCF-7 tumor tissues; assay: IHC staining of tumor tissue; assay type: in vivo, nude mice (BALB/c); conditions: 19d treatment groups
[8] = HE staining of major organs of xenograft mice; assay type: in vivo, nude mice (BALB/c); conditions: after 19d treatment, all groups of both xenograft models
[9] = tested on: protein expression in MDA-MB-468 cells; assay: Western blot analysis; assay type: cell-based, human
MDA-MB-468 cells [10] = assay: Cell viability assay; assay type: cell-based, human; conditions: Homo sapiens, MDA-MB-468, 24 h, read-out: Anti-proliferative activity (IC50)
[11] = male, Sprague-Dawley, rat, plasma, po, 10 mg/kg

COc1cc(OC)c2c(=O)[nH]c(-c3ccc(OCCOc4ccccc4C(N)=O)cc3)nc2c1 [Compound 19d, 2-(2-(4-(5,7-Dimethoxy-4-oxo-3,4-dihydroquinazolin-2-yl)phenoxy)ethoxy)benzamide]
improved efficacy against BRD4 than RVX-208 ([1]; ratio of BRD4 IC50 values): > 30 fold | inhibition at 1 µM ([1]; read-out: Inhibition rate BRD4, 1 μmol/L, tested in duplicate, average): 69% | inhibition at 10 µM ([1]; read-out: Inhibition rate BRD4, 10 μmol/L, tested in duplicate, average): 92% | apoptosis induction (MDA-MB-468 cells [2]): induced apoptosis in a dose-dependent manner | AUC0−∞ ([3]; SD rats, p.o. 10 mg/kg, n = 3, mean ± SD): 144.72 ± 25.51 ng·h/mL | AUC(0-t) [3, 11]: 114 ± 15.8 ng·h/mL | MRT inf [3, 11]: 5.35 ± 0.44 h | apoptosis induction (MCF-7 cells): no significant changes | tumor growth inhibition (TGI) ([4]; 80 mg/kg oral, once a day): 55.3% | body weight change and death during treatment ([4]; 20, 40 and 80 mg/kg oral): slight body weight change and no death of mice | expression levels of BRD4 and PARP1 in tumor tissues [5]: effectively suppressed | colony counts (MDA-MB-468 cells [6]): remarkably decreased the colony counts | TGI rate (MCF-7 tumor xenograft; 80 mg/kg oral, once a day): 48.3% | toxicity (body weight) of the dosages used (MCF-7 tumor xenograft; 20, 40 and 80 mg/kg oral): no apparent toxicity | inhibition at 1 µM (PARP1; read-out: Inhibition rate PARP1, 1 μmol/L): 37% | inhibition at 10 µM (PARP1; read-out: Inhibition rate PARP1, 10 μmol/L): 88% | expression levels of BRD4 and PARP1 in tumor tissues [7]: slightly downregulated | histological changes in major organs (HE) [8]: no visible histological changed | PAR expression ([9]; 2 μmol/L, 24 h): effective downregulation | c-Myc expression ([9]; 2 μmol/L, 24 h): higher c-Myc inhibition efficiency than RVX-208 | BAX and active form of caspase-3 expression ([9]; 1, 3.3 and 10 μmol/L): increased | BCL-2 expression ([9]; 1, 3.3 and 10 μmol/L): remarkably downregulated | expression of c-Myc and PAR ([9]; 1, 3.3 and 10 μmol/L, 24 h): decreased the expression of c-Myc and PAR in a dose-dependent manner | IC50 (MDA-MB-468 cells [10]): 3.4 ± 1.1 µM
